Reference: US12568972B2, “Pyridazinol compounds and derivatives, preparation methods, herbicidal compositions and applications thereof” (Qingdao Kingagroot Chemical Compound Co., Ltd., priority 2018, dated 2026)

Experiments:
Test in all cases: Post-emergence test, weed control effect
Assay type in all cases: in vivo
Conditions in all cases: Dose 3000 g/ha, after 3 weeks
Rorippa indica = tested on: Rorippa indica
In short: (§1)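 Weeds grown from seed in soil-filled pots in a greenhouse were sprayed at the 2-3 leaf stage, 2-3 weeks after sowing, with compound in acetone/Tween-80/water plus 80% vegetable oil methyl ester synergist at 1500 g/ha. Fresh-weight inhibition was scored on a 0-10 scale after 3 weeks.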

Chenopodiaceae = tested on: Chenopodiaceae
In short: as §1

Amaranthus retroflexus = tested on: Amaranthus retroflexus
In short: as §1

Veronica polita = tested on: Veronica polita
In short: as §1

Oc1cc(C(F)(F)F)nnc1-c1ccc(Cl)c(Cl)c1Cl [Compound 753]
10: weed control effect (activity level), Rorippa indica (Rorippa indica) | weed control effect (activity level), Chenopodiaceae (Chenopodiaceae) | weed control effect (activity level), Amaranthus retroflexus (Amaranthus retroflexus) | weed control effect (activity level), Veronica polita (Veronica polita)

O=[N+]([O-])c1cc(-c2nnc(C(F)(F)F)cc2O)ccc1Br [Compound 755]
10: weed control effect (activity level), Rorippa indica (Rorippa indica) | weed control effect (activity level), Chenopodiaceae (Chenopodiaceae) | weed control effect (activity level), Amaranthus retroflexus (Amaranthus retroflexus) | weed control effect (activity level), Veronica polita (Veronica polita)

Oc1cc(C(F)(F)F)nnc1-c1cccc(C(F)(F)F)c1F [Compound 761]
10: weed control effect (activity level), Rorippa indica (Rorippa indica) | weed control effect (activity level), Chenopodiaceae (Chenopodiaceae) | weed control effect (activity level), Amaranthus retroflexus (Amaranthus retroflexus) | weed control effect (activity level), Veronica polita (Veronica polita)

Oc1cc(C(F)(F)F)nnc1-c1ccc(C(F)(F)F)nc1 [Compound 762]
10: weed control effect (activity level), Rorippa indica (Rorippa indica) | weed control effect (activity level), Chenopodiaceae (Chenopodiaceae) | weed control effect (activity level), Amaranthus retroflexus (Amaranthus retroflexus) | weed control effect (activity level), Veronica polita (Veronica polita)

Oc1cc(C(F)(F)F)nnc1-c1ccc(Cl)cc1C(F)(F)F [Compound 763]
10: weed control effect (activity level), Rorippa indica (Rorippa indica) | weed control effect (activity level), Chenopodiaceae (Chenopodiaceae) | weed control effect (activity level), Amaranthus retroflexus (Amaranthus retroflexus) | weed control effect (activity level), Veronica polita (Veronica polita)

Oc1cc(C(F)(F)F)nnc1-c1ccc(F)cc1C(F)(F)F [Compound 764]
10: weed control effect (activity level), Rorippa indica (Rorippa indica) | weed control effect (activity level), Chenopodiaceae (Chenopodiaceae) | weed control effect (activity level), Amaranthus retroflexus (Amaranthus retroflexus) | weed control effect (activity level), Veronica polita (Veronica polita)

Oc1cc(C(F)(F)F)nnc1-c1cccc(F)c1F [Compound 766]
10: weed control effect (activity level), Rorippa indica (Rorippa indica) | weed control effect (activity level), Chenopodiaceae (Chenopodiaceae) | weed control effect (activity level), Amaranthus retroflexus (Amaranthus retroflexus) | weed control effect (activity level), Veronica polita (Veronica polita)

COc1ccc(-c2nnc(C(F)(F)F)cc2O)cc1[N+](=O)[O-] [Compound 768]
10: weed control effect (activity level), Rorippa indica (Rorippa indica) | weed control effect (activity level), Chenopodiaceae (Chenopodiaceae) | weed control effect (activity level), Amaranthus retroflexus (Amaranthus retroflexus) | weed control effect (activity level), Veronica polita (Veronica polita)

Oc1cc(C(F)(F)F)nnc1-c1ccc(C(F)(F)F)cc1Cl [Compound 769]
10: weed control effect (activity level), Rorippa indica (Rorippa indica) | weed control effect (activity level), Chenopodiaceae (Chenopodiaceae) | weed control effect (activity level), Amaranthus retroflexus (Amaranthus retroflexus) | weed control effect (activity level), Veronica polita (Veronica polita)

Oc1cc(C(F)(F)F)nnc1-c1cncc(Cl)c1 [Compound 770]
10: weed control effect (activity level), Rorippa indica (Rorippa indica) | weed control effect (activity level), Chenopodiaceae (Chenopodiaceae) | weed control effect (activity level), Amaranthus retroflexus (Amaranthus retroflexus) | weed control effect (activity level), Veronica polita (Veronica polita)

Oc1cc(C(F)(F)F)nnc1-c1ccc2c(c1)OCO2 [Compound 771]
10: weed control effect (activity level), Rorippa indica (Rorippa indica) | weed control effect (activity level), Chenopodiaceae (Chenopodiaceae) | weed control effect (activity level), Amaranthus retroflexus (Amaranthus retroflexus) | weed control effect (activity level), Veronica polita (Veronica polita)

Oc1cc(C(F)(F)F)nnc1-c1ccccc1Br [Compound 772]
10: weed control effect (activity level), Rorippa indica (Rorippa indica) | weed control effect (activity level), Chenopodiaceae (Chenopodiaceae) | weed control effect (activity level), Amaranthus retroflexus (Amaranthus retroflexus) | weed control effect (activity level), Veronica polita (Veronica polita)

Cn1nccc1-c1nnc(C(F)(F)F)cc1O [Compound 774]
10: weed control effect (activity level), Rorippa indica (Rorippa indica) | weed control effect (activity level), Chenopodiaceae (Chenopodiaceae) | weed control effect (activity level), Amaranthus retroflexus (Amaranthus retroflexus) | weed control effect (activity level), Veronica polita (Veronica polita)

Cn1nc(F)cc1-c1nnc(C(F)(F)F)cc1O [Compound 775]
10: weed control effect (activity level), Rorippa indica (Rorippa indica) | weed control effect (activity level), Chenopodiaceae (Chenopodiaceae) | weed control effect (activity level), Amaranthus retroflexus (Amaranthus retroflexus) | weed control effect (activity level), Veronica polita (Veronica polita)

Cn1nc(Cl)cc1-c1nnc(C(F)(F)F)cc1O [Compound 776]
10: weed control effect (activity level), Rorippa indica (Rorippa indica) | weed control effect (activity level), Chenopodiaceae (Chenopodiaceae) | weed control effect (activity level), Amaranthus retroflexus (Amaranthus retroflexus) | weed control effect (activity level), Veronica polita (Veronica polita)

Cn1nc(Br)cc1-c1nnc(C(F)(F)F)cc1O [Compound 777]
10: weed control effect (activity level), Rorippa indica (Rorippa indica) | weed control effect (activity level), Chenopodiaceae (Chenopodiaceae) | weed control effect (activity level), Amaranthus retroflexus (Amaranthus retroflexus) | weed control effect (activity level), Veronica polita (Veronica polita)

Cn1nc(I)cc1-c1nnc(C(F)(F)F)cc1O [Compound 778]
10: weed control effect (activity level), Rorippa indica (Rorippa indica) | weed control effect (activity level), Chenopodiaceae (Chenopodiaceae) | weed control effect (activity level), Amaranthus retroflexus (Amaranthus retroflexus) | weed control effect (activity level), Veronica polita (Veronica polita)

CCc1cc(-c2nnc(C(F)(F)F)cc2O)n(C)n1 [Compound 780]
10: weed control effect (activity level), Rorippa indica (Rorippa indica) | weed control effect (activity level), Chenopodiaceae (Chenopodiaceae) | weed control effect (activity level), Amaranthus retroflexus (Amaranthus retroflexus) | weed control effect (activity level), Veronica polita (Veronica polita)

Cn1nc(C2CC2)cc1-c1nnc(C(F)(F)F)cc1O [Compound 781]
10: weed control effect (activity level), Rorippa indica (Rorippa indica) | weed control effect (activity level), Chenopodiaceae (Chenopodiaceae) | weed control effect (activity level), Amaranthus retroflexus (Amaranthus retroflexus) | weed control effect (activity level), Veronica polita (Veronica polita)

COc1cc(-c2nnc(C(F)(F)F)cc2O)n(C)n1 [Compound 782]
10: weed control effect (activity level), Rorippa indica (Rorippa indica) | weed control effect (activity level), Chenopodiaceae (Chenopodiaceae) | weed control effect (activity level), Amaranthus retroflexus (Amaranthus retroflexus) | weed control effect (activity level), Veronica polita (Veronica polita)

CCOc1cc(-c2nnc(C(F)(F)F)cc2O)n(C)n1 [Compound 783]
10: weed control effect (activity level), Rorippa indica (Rorippa indica) | weed control effect (activity level), Chenopodiaceae (Chenopodiaceae) | weed control effect (activity level), Amaranthus retroflexus (Amaranthus retroflexus) | weed control effect (activity level), Veronica polita (Veronica polita)

Cn1nc(OCc2ccccc2)cc1-c1nnc(C(F)(F)F)cc1O [Compound 784]
10: weed control effect (activity level), Rorippa indica (Rorippa indica) | weed control effect (activity level), Chenopodiaceae (Chenopodiaceae) | weed control effect (activity level), Amaranthus retroflexus (Amaranthus retroflexus) | weed control effect (activity level), Veronica polita (Veronica polita)

CN(C)c1cc(-c2nnc(C(F)(F)F)cc2O)n(C)n1 [Compound 787]
10: weed control effect (activity level), Rorippa indica (Rorippa indica) | weed control effect (activity level), Chenopodiaceae (Chenopodiaceae) | weed control effect (activity level), Amaranthus retroflexus (Amaranthus retroflexus) | weed control effect (activity level), Veronica polita (Veronica polita)

Cn1nc(C#N)cc1-c1nnc(C(F)(F)F)cc1O [Compound 791]
10: weed control effect (activity level), Rorippa indica (Rorippa indica) | weed control effect (activity level), Chenopodiaceae (Chenopodiaceae) | weed control effect (activity level), Amaranthus retroflexus (Amaranthus retroflexus) | weed control effect (activity level), Veronica polita (Veronica polita)

Cn1nc(C(F)F)cc1-c1nnc(C(F)(F)F)cc1O [Compound 794]
10: weed control effect (activity level), Rorippa indica (Rorippa indica) | weed control effect (activity level), Chenopodiaceae (Chenopodiaceae) | weed control effect (activity level), Amaranthus retroflexus (Amaranthus retroflexus) | weed control effect (activity level), Veronica polita (Veronica polita)

Cc1nn(C)c(-c2nnc(C(F)(F)F)cc2O)c1F [Compound 803]
10: weed control effect (activity level), Rorippa indica (Rorippa indica) | weed control effect (activity level), Chenopodiaceae (Chenopodiaceae) | weed control effect (activity level), Amaranthus retroflexus (Amaranthus retroflexus) | weed control effect (activity level), Veronica polita (Veronica polita)

Cn1ncc(F)c1-c1nnc(C(F)(F)F)cc1O [Compound 804]
10: weed control effect (activity level), Rorippa indica (Rorippa indica) | weed control effect (activity level), Chenopodiaceae (Chenopodiaceae) | weed control effect (activity level), Amaranthus retroflexus (Amaranthus retroflexus) | weed control effect (activity level), Veronica polita (Veronica polita)

Cn1ncc(Cl)c1-c1nnc(C(F)(F)F)cc1O [Compound 805]
10: weed control effect (activity level), Rorippa indica (Rorippa indica) | weed control effect (activity level), Chenopodiaceae (Chenopodiaceae) | weed control effect (activity level), Amaranthus retroflexus (Amaranthus retroflexus) | weed control effect (activity level), Veronica polita (Veronica polita)

Cn1ncc(Br)c1-c1nnc(C(F)(F)F)cc1O [Compound 806]
10: weed control effect (activity level), Rorippa indica (Rorippa indica) | weed control effect (activity level), Chenopodiaceae (Chenopodiaceae) | weed control effect (activity level), Amaranthus retroflexus (Amaranthus retroflexus) | weed control effect (activity level), Veronica polita (Veronica polita)

Cn1ncc(I)c1-c1nnc(C(F)(F)F)cc1O [Compound 807]
10: weed control effect (activity level), Rorippa indica (Rorippa indica) | weed control effect (activity level), Chenopodiaceae (Chenopodiaceae) | weed control effect (activity level), Amaranthus retroflexus (Amaranthus retroflexus) | weed control effect (activity level), Veronica polita (Veronica polita)

Cc1cnn(C)c1-c1nnc(C(F)(F)F)cc1O [Compound 808]
10: weed control effect (activity level), Rorippa indica (Rorippa indica) | weed control effect (activity level), Chenopodiaceae (Chenopodiaceae) | weed control effect (activity level), Amaranthus retroflexus (Amaranthus retroflexus) | weed control effect (activity level), Veronica polita (Veronica polita)
